Holding throughout (type): in vivo
Experiment [1] relates to foxtail, giant (giant foxtail, Setaria faberi). Kind of experiment: Test A postemergence, foxtail, giant. The note with it: Setaria faberi, post-emergence, 240 h, 10 days, read-out: Plant response rating, Foxtail, Giant; for pest or weed control at 31 g/ha: 31 g ai/ha; for pest or weed control at 125 g/ha: 125 g ai/ha. The essentials:
(§1)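 Seeds sown in loam–sand blend received a directed soil spray preemergence; postemergence plants at 2 to 10 cm, one- to two-leaf stage, were sprayed. Compounds were formulated in non-phytotoxic solvent with surfactant. After 10 days in greenhouse, injury was rated visually versus untreated controls, 0 (no effect) to 100 (complete control).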

Experiment [2] relates to kochia (Bassia scoparia). Kind of experiment: Test A preemergence, kochia. The note with it: Bassia scoparia, pre-emergence, 240 h, 0 to 100 scale, 10 days, read-out: Plant response rating, Kochia; for pest or weed control at 31 g/ha: 31 g ai/ha; for pest or weed control at 125 g/ha: 125 g ai/ha. In a few lines:
as §1

The subject of experiment [3] is foxtail, giant (giant foxtail, Setaria faberi). As to the kind of experiment: Test A preemergence, foxtail, giant. To be noted: Setaria faberi, pre-emergence, 240 h, 0 to 100 scale, 10 days, read-out: Plant response rating, Foxtail, Giant; for pest or weed control at 31 g/ha: 31 g ai/ha; for pest or weed control at 125 g/ha: 125 g ai/ha. The essentials: as §1
For experiment [4], the system named is ducksalad (Heteranthera limosa). As to the kind of experiment: Test B flooded paddy test, ducksalad. To be noted: Heteranthera limosa; 250 g ai/ha, Flood; visually evaluated after 10 to 14 days; read-out: Plant response rating, Ducksalad (0 to 100 scale where 0 is no effect and 100 is complete control). In a few lines: (§2)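 Plants grown to the 2-leaf stage were flooded to 3 cm above the soil, and test compounds were applied directly into the paddy water, which was held at that depth throughout. After 10 to 14 days in a greenhouse, injury was visually rated against controls on a 0–100 scale (0 no effect, 100 complete control).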

In experiment [5] the test system is ryegrass, Italian (Italian ryegrass, Lolium multiflorum). As to the kind of experiment: Test A postemergence, ryegrass, Italian. To be noted: Lolium multiflorum, post-emergence, 240 h, 10 days, read-out: Plant response rating, Ryegrass, Italian; for pest or weed control at 31 g/ha: 31 g ai/ha, postemergence, 0 to 100 scale (0 no effect, 100 complete control); for pest or weed control at 125 g/ha: Postemergence, 125 g ai/ha, 0 to 100 scale. In a few lines: as §1

Experiment [6] relates to kochia (Bassia scoparia). Kind of experiment: Test A postemergence, kochia. The note with it: Bassia scoparia, post-emergence, 240 h, 10 days, read-out: Plant response rating, Kochia; for pest or weed control at 31 g/ha: 31 g ai/ha, postemergence, 0 to 100 scale (0 no effect, 100 complete control); for pest or weed control at 125 g/ha: Postemergence, 125 g ai/ha, 0 to 100 scale. In a few lines:
as §1

The subject of experiment [7] is rice (Oryza sativa). As to the kind of experiment: Test B flooded paddy test, rice. To be noted: Oryza sativa; 250 g ai/ha, Flood; visually evaluated after 10 to 14 days; read-out: Plant response rating, Rice (0 to 100 scale where 0 is no effect and 100 is complete control). The essentials:
as §2

In experiment [8] the test system is wheat (Triticum aestivum). As to the kind of experiment: Test A postemergence, wheat. To be noted: Triticum aestivum, post-emergence, 240 h, 10 days, read-out: Plant response rating, Wheat; for plant injury at 31 g/ha: 31 g ai/ha, postemergence, 0 to 100 scale (0 no effect, 100 complete control); for plant injury at 125 g/ha: Postemergence, 125 g ai/ha, 0 to 100 scale. In a few lines:
as §1

For experiment [9], the system named is ryegrass, Italian (Italian ryegrass, Lolium multiflorum). As to the kind of experiment: Test A preemergence, ryegrass, Italian. The note with it: Lolium multiflorum, pre-emergence, 240 h, 0 to 100 scale, 10 days, read-out: Plant response rating, Ryegrass, Italian; for pest or weed control at 31 g/ha: 31 g ai/ha; for pest or weed control at 125 g/ha: 125 g ai/ha. The essentials: as §1

Experiment [10] deals with barnyardgrass (Echinochloa crus-galli). As to the kind of experiment: Test B flooded paddy test, barnyardgrass. To be noted: Echinochloa crus-galli; 250 g ai/ha, Flood; visually evaluated after 10 to 14 days; read-out: Plant response rating, Barnyardgrass (0 to 100 scale where 0 is no effect and 100 is complete control). The essentials: as §2
Experiment [11] concerns ragweed (common ragweed, Ambrosia artemisiifolia). Kind of experiment: Test A preemergence, ragweed. To be noted: Ambrosia artemisiifolia, pre-emergence, 240 h, 0 to 100 scale, 10 days, read-out: Plant response rating, Ragweed; for pest or weed control at 31 g/ha: 31 g ai/ha; for pest or weed control at 125 g/ha: 125 g ai/ha. The essentials: as §1
For experiment [12], the system named is galium (catchweed bedstraw, Galium aparine). As to the kind of experiment: Test A postemergence, galium. To be noted: Galium, post-emergence, 240 h, 10 days, read-out: Plant response rating, Galium; for pest or weed control at 31 g/ha: 31 g ai/ha, postemergence, 0 to 100 scale (0 no effect, 100 complete control); for pest or weed control at 125 g/ha: Postemergence, 125 g ai/ha, 0 to 100 scale. The essentials:
as §1

The values that follow come from patent US12692238B2, “Substituted pyridazinone herbicides” (FMC CORPORATION, priority 2020, dated 2026).

With `COC(=O)OCOc1c(Cl)nn(C)c(=O)c1-c1c2cc(C)ccc2cc2ccc(C)cc12` [Compound 8, [[3-chloro-5-(2,7-dimethyl-9-anthracenyl)-1,6-dihydro-1-methyl-6-oxo-4-pyridazinyl]oxy]methyl methyl carbonate], the pest or weed control at 31 g/ha in [1] (Postemergence, 0 to 100 scale) is 10%; in experiment [2] it was 60%; in experiment [3], 30%; in experiment [5] it was 10%; in experiment [6], 90%; in [9], 0%. Moreover, the pest or weed control at 31 g/ha in experiment [11] came to 40%; in experiment [12], 100%. Further, the pest or weed control at 125 g/ha in experiment [1] (Postemergence, 0 to 100 scale) is 70%; in [2], 100%; in [3] it was 70%; in experiment [5], 10%; in experiment [6], 100%; in experiment [9], 10%. In addition, the pest or weed control at 125 g/ha in [11] and in experiment [12] was 100% in each case. For the same compound, the pest or weed control at 250 g/ha came out at 95% in [4] and 90% in experiment [10]. The plant injury at 250 g/ha in experiment [7] stood at 0%. In [8], the plant injury at 31 g/ha was 0%. Moreover, the plant injury at 125 g/ha in experiment [8] came to 0%.

On to `Cc1ccc2cc3ccc(C)cc3c(-c3c(OCOC(=O)C(C)(C)C)c(Cl)nn(C)c3=O)c2c1` [Compound 9, [[3-chloro-5-(2,7-dimethyl-9-anthracenyl)-1,6-dihydro-1-methyl-6-oxo-4-pyridazinyl]oxy]methyl 2,2-dimethylpropanoate], for which the pest or weed control at 31 g/ha in experiment [1] (Postemergence, 0 to 100 scale) stood at 20%; in experiment [2], 50%; in experiment [3], 0%; in experiment [5] it was 0%; in experiment [6] it was 70%; in [9], 0%. The results for the pest or weed control at 31 g/ha in experiment [11] and in [12] were 0% and 70%, respectively. Moreover, the pest or weed control at 125 g/ha in experiment [1] (Postemergence, 0 to 100 scale) was determined as 40%; in [2], 100%; in experiment [3] it was 50%; in experiment [5], 10%; in experiment [6], 90%; in experiment [9] it was 0%. Also, the pest or weed control at 125 g/ha amounted to 60% in experiment [11] and 100% in [12]. For the same compound, the pest or weed control at 250 g/ha came to 100% in experiment [4] and 98% in [10]. Moreover, the plant injury at 250 g/ha in [7] worked out at 0%. Besides, the plant injury at 31 g/ha in experiment [8] was 0%. Besides, the plant injury at 125 g/ha in [8] was 0%.

For the compound `COC(=O)OCOc1c(C)nn(C)c(=O)c1-c1c2cc(C)ccc2cc2ccc(F)cc12` [Compound 15, [[5-(2-fluoro-7-methyl-9-anthracenyl)-1,6-dihydro-1,3-dimethyl-6-oxo-4-pyridazinyl]oxy]methyl methyl carbonate], the pest or weed control at 31 g/ha in [1] (postemergence, 0 to 100 scale (0 no effect, 100 complete control)) amounted to 100%; in experiment [2], 90%; in experiment [3] it was 100%; in [5] it was 100%; in [6], 100%; in experiment [9] it was 50%. Moreover, the pest or weed control at 31 g/ha in [11] and in [12] was 100% in each case. The pest or weed control at 125 g/ha in experiment [1] (Postemergence, 0 to 100 scale) came out at 100%; in experiment [2], 100%; in [3], 100%; in experiment [5] it was 100%; in [6], 100%; in experiment [9], 100%. Also, the pest or weed control at 125 g/ha in experiment [11] and in experiment [12] was 100% each time. Further, the pest or weed control at 250 g/ha worked out at 95% in [4] and 50% in [10]. Also, the plant injury at 250 g/ha in [7] was 65%. For the same compound, the plant injury at 31 g/ha in experiment [8] stood at 0%. For the same compound, the plant injury at 125 g/ha in experiment [8] is 0%.
